Reference: ChEMBL document CHEMBL1127188, “Phenylphosphonate monoester analogs of cocaine. Potential haptens for the generation of catalytic antibodies” (Bioorg Med Chem Lett, 1993)

Species on record: Mus musculus
Test: Compound was tested for its ability to inhibit mAb (monoclonal antibody) binding to immobilized ova-10d; inhibited the binding of seven of nine mAbs to immobilized ova-10d, A - The IC50 of these seven mAb ranged from 15 to 350 uM
Format: functional, organism-based

## COC(=O)C1C(OP(=O)(O)c2ccccc2)CC2CCC1N2C (stereo unspecified)
  IC50: A
